By IC50 is commonly meant the midpoint of a concentration-inhibition curve.

The values below come from patent US8236808B2, “Pyrazine derivatives as ENAC blockers” (Novartis AG, priority 2008, dated 2012).

Counter-ions that a name gives are not always drawn.

The target in this assay is T1, epithelial sodium channel (ENaC) (Homo sapiens, UniProt P37088+P51168+P51170).
T1 construct: host or cells: primary human bronchial epithelial cells (HBECs), differentiated at the air-liquid interface
T1 sequence (P37088 1-669): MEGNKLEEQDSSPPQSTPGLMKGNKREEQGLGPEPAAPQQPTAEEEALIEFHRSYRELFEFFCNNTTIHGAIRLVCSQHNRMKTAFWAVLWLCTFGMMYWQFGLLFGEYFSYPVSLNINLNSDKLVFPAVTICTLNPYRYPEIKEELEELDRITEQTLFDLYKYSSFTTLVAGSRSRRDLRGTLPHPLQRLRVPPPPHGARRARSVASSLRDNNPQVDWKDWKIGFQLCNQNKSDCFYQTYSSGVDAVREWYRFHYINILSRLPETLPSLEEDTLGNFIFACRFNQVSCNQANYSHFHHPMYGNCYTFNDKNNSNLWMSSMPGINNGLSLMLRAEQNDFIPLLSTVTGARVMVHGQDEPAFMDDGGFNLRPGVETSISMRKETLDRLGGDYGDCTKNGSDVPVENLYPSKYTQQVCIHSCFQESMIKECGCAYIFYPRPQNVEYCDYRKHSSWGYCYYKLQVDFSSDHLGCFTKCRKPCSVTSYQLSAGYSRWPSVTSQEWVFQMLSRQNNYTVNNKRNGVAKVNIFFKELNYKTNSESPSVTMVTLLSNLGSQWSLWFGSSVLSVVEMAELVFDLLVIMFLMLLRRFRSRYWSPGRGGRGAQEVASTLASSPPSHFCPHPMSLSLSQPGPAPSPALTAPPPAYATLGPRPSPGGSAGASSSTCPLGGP
T1 sequence (P51168 1-640): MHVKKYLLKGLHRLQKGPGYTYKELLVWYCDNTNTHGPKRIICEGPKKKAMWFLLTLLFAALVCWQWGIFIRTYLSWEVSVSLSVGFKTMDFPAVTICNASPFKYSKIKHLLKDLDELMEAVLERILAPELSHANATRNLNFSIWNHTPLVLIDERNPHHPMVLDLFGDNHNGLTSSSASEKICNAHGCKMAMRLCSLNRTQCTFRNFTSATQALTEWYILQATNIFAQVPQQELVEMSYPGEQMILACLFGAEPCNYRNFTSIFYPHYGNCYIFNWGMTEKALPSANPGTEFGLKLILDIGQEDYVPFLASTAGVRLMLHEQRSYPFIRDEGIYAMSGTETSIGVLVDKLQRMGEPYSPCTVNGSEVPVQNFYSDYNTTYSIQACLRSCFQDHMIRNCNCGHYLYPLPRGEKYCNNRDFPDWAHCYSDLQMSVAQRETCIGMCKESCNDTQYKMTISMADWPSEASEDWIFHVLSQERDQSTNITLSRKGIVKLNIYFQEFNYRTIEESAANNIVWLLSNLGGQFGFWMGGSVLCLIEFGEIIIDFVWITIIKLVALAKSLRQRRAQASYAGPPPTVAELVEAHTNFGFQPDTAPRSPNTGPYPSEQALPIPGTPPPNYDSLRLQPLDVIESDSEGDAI
T1 sequence (P51170 1-649): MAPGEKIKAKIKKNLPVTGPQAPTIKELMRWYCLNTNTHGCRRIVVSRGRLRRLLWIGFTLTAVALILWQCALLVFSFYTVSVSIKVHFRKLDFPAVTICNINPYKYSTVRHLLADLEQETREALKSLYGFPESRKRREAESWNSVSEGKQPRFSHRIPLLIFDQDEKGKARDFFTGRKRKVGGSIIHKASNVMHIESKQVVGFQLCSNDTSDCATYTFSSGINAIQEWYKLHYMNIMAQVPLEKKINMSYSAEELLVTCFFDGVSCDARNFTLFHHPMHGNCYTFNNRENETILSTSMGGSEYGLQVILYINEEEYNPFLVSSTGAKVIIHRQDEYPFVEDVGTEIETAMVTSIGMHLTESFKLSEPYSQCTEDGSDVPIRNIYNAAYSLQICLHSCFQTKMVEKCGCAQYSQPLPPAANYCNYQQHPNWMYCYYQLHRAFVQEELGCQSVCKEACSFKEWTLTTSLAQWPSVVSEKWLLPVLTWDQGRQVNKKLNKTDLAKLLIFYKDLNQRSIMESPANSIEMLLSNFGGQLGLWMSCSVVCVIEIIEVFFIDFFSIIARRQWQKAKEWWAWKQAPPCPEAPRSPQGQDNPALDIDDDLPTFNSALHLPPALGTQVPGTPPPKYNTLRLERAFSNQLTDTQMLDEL
Description: Short circuit current (ISC) measurements in human bronchial epithelial cells, inhibition of amiloride-sensitive ISC. The assay is classed as cell-based. As to conditions: inhibition of the amiloride-sensitive ISC; HBECs cultured at air-liquid interface, Ussing chamber, compound added to apical chamber.
`C[N+](C)(CCNC(=O)c1nc(Cl)c(N)nc1N)CCc1ccccc1` [Example 129, {2-[(3,5-Diamino-6-chloro-pyrazine-2-carbonyl)-amino]-ethyl}-dimethyl-phenethyl-ammonium trifluoroacetate] registered an IC50 of 1.14 µM.
Take `C[N+](C)(C)CCNC(=O)c1nc(Cl)c(N)nc1N` [Example 130, {2-[(3,5-Diamino-6-chloro-pyrazine-2-carbonyl)-amino]-ethyl}-trimethyl-ammonium iodide]: the 50% inhibitory concentration (IC50) stood at 5.81 µM.
Next, `COC(=O)COc1ccc(CCC[N+](C)(C)CCNC(=O)c2nc(Cl)c(N)nc2N)cc1` [Example 132, {2-[(3,5-Diamino-6-chloro-pyrazine-2-carbonyl)-amino]-ethyl}-[3-(4-methoxycarbonylmethoxy-phenyl)-propyl]-dimethyl-ammonium trifluoroacetate]: 1.49 µM; `C[N+](C)(CCCc1ccc(OCC(=O)O)cc1)CCNC(=O)c1nc(Cl)c(N)nc1N` [Example 133, [3-(4-Carboxymethoxy-phenyl)-propyl]-{2-[(3,5-diamino-6-chloro-pyrazine-2-carbonyl)-amino]-ethyl}-dimethyl-ammonium trifluoroacetate]: 6.52 µM.
